Legend:
Aβ42 = experiment: Method 1: Aβ42 sandwich ELISA in supernatant of SKNBE2 cells carrying APP 695-wild type (Tables 7a, 7b); format: cell-based
Protocol: (§1) Screening was carried out using SKNBE2 cells carrying the APP 695-wild type, grown in Dulbecco's Modified Eagle's Medium/Nutrient mixture F-12 (DMEM/NUT-mix F-12) (HAM) provided by Gibco (cat no. 31330-38) containing 5% Serum/Fe supplemented with 1% non-essential amino acids. Cells were grown to near confluency.
(§2) The screening was performed using the assay as described in Citron et al (1997) Nature Medicine 3: 67. Briefly, cells were plated in a 96-well plate at about 10^5 cells/ml one day prior to addition of compounds. Compounds were added to the cells in Ultraculture (Lonza, BE12-725F) supplemented with 1% glutamine (Invitrogen, 25030-024) for 18 Hours. The media were assayed by two sandwich ELISAs, for Aβ42 and Aβtotal. Toxicity of the compounds was assayed by WST-1 cell proliferation reagent (Roche, 1 644 807) according to the manufacturer's protocol.
To quantify the amount of Aβ42 in the cell supernatant, commercially available Enzyme-Linked-Immunosorbent-Assay (ELISA) kits were used (Innotest® β-Amyloid(1-42), Innogenetics N.V., Ghent, Belgium). The Aβ42 ELISA was performed essentially according to the manufacturer's protocol. Briefly, the standards (dilutions of synthetic Aβ1-42) were prepared in polypropylene Eppendorf with final concentrations of 8000 down to 3.9 pg/ml (½ dilution step). Samples, standards and blanks (100 μl) were added to the anti-Aβ42-coated plate supplied with the kit (the capture antibody selectively recognizes the C-terminal end of the antigen). The plate was allowed to incubate 3 H at 25° C. in order to allow formation of the antibody-amyloid complex. Following this incubation and subsequent wash steps a selective anti-Aβ-antibody conjugate (biotinylated 3D6) was added and incubated for a minimum of 1 Hour in order to allow formation of the antibody-Amyloid-antibody-complex. After incubation and appropriate wash steps, a Streptavidine-Peroxidase-Conjugate was added, followed 30 minutes later by an addition of 3,3′,5,5′-tetramethylbenzidine (TMB)/peroxide mixture, resulting in the conversion of the substrate into a coloured product. This reaction was stopped by the addition of sulfuric acid (0.9 N) and the colour intensity was measured by means of photometry with an ELISA-reader with a 450 nm filter.
(§3) To obtain the values reported in Table 7a, the sigmoidal dose response curves were analysed by computerised curve-fitting, with percent of inhibition plotted against compound concentration. A 4-parameter equation (model 205) in XLfit was used to determine the IC50. The top and the bottom of the curve were fixed to 100 and 0, respectively, and the hill slope was fixed to 1. The IC50 represents the concentration of a compound that is required for inhibiting a biological effect by 50% (Here, it is the concentration where Aβ peptide level is reduced by 50%).
(§4) To obtain the values reported in Table 7b, the data were calculated as percentage of the maximum amount of amyloid Beta 42 measured in the absence of the test compound. The sigmoidal dose response curves were analyzed using non-linear regression analysis with percentage of the control plotted against the log concentration of the compound. A 4-parameter equation was used to determine the IC50. The values reported in Table 7b are averaged IC50 values.

Aβtotal = experiment: Method 1: Aβtotal sandwich ELISA in supernatant of SKNBE2 cells carrying APP 695-wild type (Tables 7a, 7b); format: cell-based
Protocol: as §1, §2
To quantify the amount of Aβtotal in the cell supernatant, samples and standards were added to a 6E10-coated plate. The plate was allowed to incubate overnight at 4° C. in order to allow formation of the antibody-amyloid complex. Following this incubation and subsequent wash steps a selective anti-Aβ-antibody conjugate (biotinylated 4G8) was added and incubated for a minimum of 1 Hour in order to allow formation of the antibody-Amyloid-antibody-complex. After incubation and appropriate wash steps, a Streptavidine-Peroxidase-Conjugate was added, followed 30 minutes later by an addition of Quanta Blu fluorogenic peroxidase substrate according to the manufacturer's instructions (Pierce Corp., Rockford, Ill.).
as §3, §4

[1] = Homo sapiens, SKNBE2, Table 7b, averaged IC50, non-linear regression of percentage of control vs log concentration, 4-parameter equation
[2] = Homo sapiens, Table 7a, SKNBE2 cells, compounds 18 h, XLfit 4-parameter fit of percent inhibition, top/bottom fixed to 100/0, hill slope 1
[3] = Table 7a, SKNBE2 cells, compounds 18 h, XLfit 4-parameter fit of percent inhibition, top/bottom fixed to 100/0, hill slope 1
[4] = Table 7b, averaged IC50, non-linear regression of percentage of control vs log concentration, 4-parameter equation

Compound | IC50 (Aβ42; [1]) [nM] | IC50 (Aβ42; [2]) [nM] | IC50 (Aβtotal; [1]) [nM] | IC50 (Aβtotal; [2]) [nM] | IC50 (Aβ42; [3]) [nM] | IC50 (Aβ42; [4]) [nM] | IC50 (Aβtotal; [3]) [nM] | IC50 (Aβtotal; [4]) [nM]
COc1cccc(-c2nc3c(Nc4ccc(-c5cnc(C)s5)c(OC)c4)cccn3c2C)c1 [Compound 4] | 63 | 67 | > 3000 | > 3000 | – | – | – | –
COc1cccc(-c2nc3c(Nc4ccc(-c5sc(C)nc5C)c(OC)c4)cccn3c2C)c1 [Compound 5] | 78 | 63 | > 3000 | > 3000 | – | – | – | –
COc1cccc(-c2nc3c(Nc4ccc(-c5cn(C)nc5C)c(OC)c4)cccn3c2C)c1 [Compound 6] | 102 | 77 | > 3000 | > 3000 | – | – | – | –
COc1cc(Nc2cccn3cc(-c4ccc(F)cc4)nc23)ccc1-c1oc(C)nc1C [Compound 7] | 302 | 334 | > 10000 | > 10000 | – | – | – | –
COc1cc(Nc2cccn3c(C)c(-c4ccccc4)nc23)ccc1-c1oc(C)nc1C [Compound 8] | 282 | 275 | > 5000 | > 5000 | – | – | – | –
COc1cc(Nc2cccc3c2nc(-c2ccc(F)cc2)n3C)ccc1-c1ccnn1C [Compound 9] | 240 | 399 | > 3000 | > 3000 | – | – | – | –
Cc1ncc(-c2ccc(Nc3cccc4c3nc(-c3ccc(F)cc3)n4C(C)C)nc2)o1 [Compound 15] | 100 | – | > 3000 | – | – | – | – | –
Cc1ncc(-c2ccc(Nc3cccc4c3nc(-c3ccc(F)cc3)n4C(C)C)cc2)o1 [Compound 19] | – | – | – | – | 49 | 28 | > 3000 | > 3000
COc1cccc(-c2nc3c(Nc4ccc(-c5ocnc5C)c(OC)c4)cccc3n2C)c1 [Compound 20] | – | – | – | – | 13 | 17 | > 1000 | > 1000
COc1cccc(-c2nc3c(Nc4ccc(-c5cnc(C)o5)cc4)cccc3n2C(C)C)c1 [Compound 21] | – | – | – | – | – | 9 | – | > 3000
Cc1ncc(-c2ccc(Nc3nccc4c3nc(-c3ccc(F)cc3)n4C)cc2)o1 [Compound 23] | – | – | – | – | 417 | 398 | > 3000 | > 3000
COc1cc(Nc2cccc3c2nc(-c2ccc(F)cc2)n3C)ccc1-c1oc(C)nc1C [Compound 24] | – | – | – | – | 56 | 55 | > 3000 | > 3000
COc1cc(Nc2nccc3c2nc(-c2ccc(F)cc2)n3C(C)C)ccc1-c1cnc(C)o1 [Compound 27] | – | – | – | – | – | 676 | – | > 3000
Cc1ncc(-c2ccc(Nc3cccc4c3nc(-c3ccc(F)cc3)n4C(C)C)cc2F)o1 [Compound 28] | – | – | – | – | – | 110 | – | > 3000
Cc1ncc(-c2ccc(Nc3cccc4c3nc(-c3ccc(F)cc3)n4C)cn2)o1 [Compound 29] | – | – | – | – | 29 | 28 | > 3000 | > 3000
Cc1ncoc1-c1ccc(Nc2cccc3c2nc(-c2cccc(Cl)c2)n3C)nc1 [Compound 32] | – | – | – | – | 235 | 282 | > 10000 | > 10000
COc1cc(-c2nc3c(Nc4ccc(-c5ocnc5C)cn4)cccc3n2C)ccc1Cl [Compound 33] | – | – | – | – | 102 | 141 | > 10000 | > 10000
Cc1ncoc1-c1ccc(Nc2cccc3c2nc(-c2ccc(F)cc2)n3C(C)(C)C)cn1 [Compound 34] | – | – | – | – | 16 | 110 | > 3000 | > 3000
COCCn1c(C)nc2c(Nc3ccc(-c4cnc(C)s4)c(OC)c3)cccc21 [Compound 37] | – | – | – | – | – | 380 | – | > 3000
Cc1ncc(-c2ccc(Nc3cccn4cc(-c5ccccc5C)nc34)cc2)o1 [Compound 39] | – | – | – | – | 53 | 51 | > 3000 | > 3000
Cc1ncc(-c2ccc(Nc3cccn4cc(-c5ccc(F)cc5)nc34)cc2)o1 [Compound 42] | – | – | – | – | 96 | 123 | > 3000 | > 3000
Cc1cc(F)ccc1-c1cn2cccc(Nc3ccc(-c4ocnc4C)nc3)c2n1 [Compound 44] | – | – | – | – | 140 | 138 | > 10000 | > 10000

Compound | IC50 (Aβ42; [1]) [nM] | IC50 (Aβ42; [2]) [nM] | IC50 (Aβtotal; [1]) [nM] | IC50 (Aβtotal; [2]) [nM] | IC50 (Aβ42; [3]) [nM] | IC50 (Aβ42; [4]) [nM] | IC50 (Aβtotal; [3]) [nM] | IC50 (Aβtotal; [4]) [nM]
Cc1ccc(-c2cn3cccc(Nc4ccc(-c5ocnc5C)nc4)c3n2)c(F)c1 [Compound 45] | – | – | – | – | 848 | 813 | > 30000 | > 30000
Cc1ncc(-c2ccc(Nc3cccn4cc(-c5ccc(F)cc5C)nc34)cc2)o1 [Compound 46] | – | – | – | – | – | 110 | – | > 3000
Cc1ccc(-c2cn3cccc(Nc4ccc(-c5cnc(C)o5)cc4)c3n2)c(F)c1 [Compound 47] | – | – | – | – | 486 | 447 | > 3000 | > 3000
COc1cc(Nc2cccn3cc(-c4cc(F)ccc4C)nc23)ccc1-c1cnc(C)o1 [Compound 48] | – | – | – | – | – | 132 | – | > 10000
Cc1ccc(C(F)(F)F)cc1-c1cn2cccc(Nc3ccc(-c4ocnc4C)nc3)c2n1 [Compound 51] | – | – | – | – | – | 72 | – | > 3000
COc1cc(Nc2cccn3cc(-c4ccccc4C)nc23)ccc1-c1cnc(C)s1 [Compound 52] | – | – | – | – | – | 166 | – | > 3000
Cc1ncc(-c2ccc(Nc3nccc4c3nc(-c3ccc(F)cc3F)n4C)cc2)o1 [Compound 53] | – | – | – | – | – | 1900 | – | > 10000
Cc1ncc(-c2ccc(Nc3nccc4c3nc(-c3ccc(F)cc3F)n4C)cc2F)o1 [Compound 55] | – | – | – | – | – | 3020 | – | > 10000
Cc1ncc(-c2ccc(Nc3nccn4cc(-c5ccc(F)cc5C)nc34)cc2)o1 [Compound 57] | – | – | – | – | – | 1070 | – | > 10000
Cc1ncc(-c2ccc(Nc3nc(Br)cn4cc(-c5ccc(F)cc5C)nc34)cc2)o1 [Compound 60] | – | – | – | – | – | 3020 | – | > 3000
Cc1ncoc1-c1ccc(Nc2cccc3c2nc(COc2ccccc2)n3C)cn1 [Compound 61] | – | – | – | – | – | 1070 | – | > 3000
COc1cc(-c2nc3c(Nc4ccc(-c5cnc(C)o5)c(OC)c4)cccc3n2C)ccc1Cl [Compound 62] | – | – | – | – | – | 9 | – | > 3000
CCn1c(CC2CC2)nc2c(Nc3ccc(-c4cnc(C)o4)c(OC)c3)cccc21 [Compound 64] | – | – | – | – | – | 68 | – | > 3000
Cn1cc(-c2ccc(Nc3cccc4c3nc(-c3ccc(F)cc3)n4C)cc2)cn1 [Compound 67] | – | – | – | – | – | 65 | – | > 3000
Cn1cc(-c2ccc(Nc3cccc4c3nc(-c3ccc(F)cc3)n4C)cn2)cn1 [Compound 70] | – | – | – | – | – | 76 | – | > 3000
Cn1nccc1-c1ccc(Nc2cccc3c2nc(-c2ccc(F)cc2)n3C)nc1 [Compound 71] | – | – | – | – | – | 1950 | – | > 3000
Cn1nccc1-c1ccc(Nc2cccc3c2nc(-c2ccc(F)cc2)n3C)cc1 [Compound 72] | – | – | – | – | – | 955 | – | > 3000
COc1cc(Nc2cccc3c2nc(-c2ccc(F)cc2)n3C)ccc1-c1ncnn1C [Compound 75] | – | – | – | – | – | 1150 | – | > 3000
Cc1ncc(-c2ccc(Nc3cccc4c3nc(-c3ccc(F)cc3)n4C)cn2)s1 [Compound 76] | – | – | – | – | – | 182 | – | > 3000
COc1cc(Nc2cccc3c2nc(-c2ccc(F)cc2)n3C(C)C)ccc1-c1cnc(C)s1 [Compound 77] | – | – | – | – | – | 43 | – | > 3000
COc1cc(Nc2nccc3c2nc(-c2ccc(F)cc2F)n3C)ccc1-c1cnc(C)s1 [Compound 78] | – | – | – | – | – | 275 | – | > 3000
Cc1nc(C)c(-c2ccc(Nc3cccc4c3nc(-c3ccc(F)cc3)n4C)cc2)o1 [Compound 83] | – | – | – | – | – | 59 | – | > 3000

Reference: patent US8946426B2, “Substituted bicyclic heterocyclic compounds as gamma secretase modulators” (Janssen Pharmaceuticals, Inc., priority 2009, dated 2015)
